Measured values: US11419806B2, “Prebiotic oral care methods using a saccharide” (Colgate-Palmolive Company, priority 2013, dated 2022)

Tests used:
Assay in all cases: Phenotype microarray metabolic activity
Type in all cases: cell-based
[1] = test system: Streptococcus mutans; details: for metabolic activity: OD 492 nm divided by OD of control (control = 1): S mutans
Protocol: (§1) The extent of metabolic activity of the tested bacteria in the presence of the above-mentioned saccharides after 24 hours and 48 hours was investigated through a high throughput phenotype microarray system (PM) for microbial cells (Biolog Inc.). Each PM can contain up to 95 different biochemical compounds (e.g. saccharides) that may act as substrates for bacteria as well as one negative control, not containing the substrates. Microarray plates were used in which the different wells of each plate were pre-loaded (by the manufacturer, Biolog Inc.) with different saccharides to be tested. Each bacterial species was tested using a separate microarray plate. Thus, a single bacterial species was tested with a variety of saccharides on each particular plate. The microarrays are based on redox technology, using cell respiration as a universal reporter. Active cell respiration results in the reduction of a tetrazolium dye and in the formation of a strong color—for example, when using the tetrazolium dye “Biolog Redox Dye Mix D”, the color changes from transparent/colorless to purple when the dye is reduced. The observation of this color change indicates which of the substrates improve the metabolic activity and health of the cells.
(§2) Each bacterial species was collected from blood agar plates (incubated for 48 hours anaerobically at 37° C.) and transferred to an IF-0 Base inoculation fluid (Biolog Inc.), which is a nutritionally poor medium. The resulting cell suspension was adjusted to a transmittance of 42% (relative to the transmittance of the base inoculation fluid with no bacterial species present) at 492 nm using a BioRad SmartSpec 3000 Photometer (the adjustment being effected by adding either further inoculation fluid or further bacteria until the transmittance of 42% was achieved). A 1:5 dilution of this suspension was prepared by mixing 3 mL of the 42% transmittance cell suspension with 15 mL of an inoculation fluid (which inoculation fluid was formed by mixing 11.6 mL sterile water, 62.5 mL IF-0 base inoculation fluid and 0.9 mL of the tetrazolium dye “Biolog Redox Dye mix D”), resulting in a final cell density which was equal to 85% transmittance using a BioRad SmartSpec 3000 Photometer. For each of the saccharides tested, the microarray plate (obtained from the supplier (Biolog Inc.) with saccharides already present in the relevant wells in powder form) was directly inoculated with 100 μL/well of this 85% transmittance cell suspension.
(§3) All plates were incubated in an anaerobic atmosphere at 37° C. Color changes were measured spectrophotometrically at 492 nm (Thermo Scientific Multiskan Ascent) at 24 hrs and 48 hrs using the same plate at both time points. […] After 24 hrs and 48 hrs under continuous shaking in a Multiscan microplate reader, the optical density (OD) of the synthetic medium at 24 hours and 48 hours was measured (using the microplate reader) at a wavelength of 492 nm for each combination of bacterium/saccharide, and for each of their respective controls (i.e. which contained the particular bacterium but no saccharide).
(§4) The experiment was carried out three times for each combination of bacterium with saccharide, with each repeat being carried out on a different day (thus providing three biological replicas). The controls were also carried out three times, as above. The values shown are the average (mean) of the three single values obtained (as detailed above) for each combination of bacterium with saccharide, at 24 hrs and at 48 hrs.

[2] = test system: Fusobacterium nucleatum; details: F nucleatum
Protocol: as §1, §2, §3, §4

[3] = test system: Streptococcus salivarius; details: for metabolic activity: OD 492 nm divided by OD of control (control = 1): S salivarius
Protocol: as §1, §2, §3, §4

[4] = test system: Porphyromonas gingivalis; details: P gingivalis
Protocol: as §1, §2, §3, §4

[5] = test system: Tannerella forsythia; details: T forsythia
Protocol: as §1, §2, §3, §4

[6] = test system: Streptococcus gordonii; details: S gordonii
Protocol: as §1, §2, §3, §4

[7] = test system: S sanguinis
Protocol: as §1, §2, §3, §4

[8] = test system: Aggregatibacter actinomycetemcomitans; details: A actinomycetemcomitans
Protocol: as §1, §2, §3, §4

[9] = test system: Veillonella parvula; details: V parvula
Protocol: as §1, §2, §3, §4

[10] = test system: Streptococcus sobrinus; details: S sobrinus
Protocol: as §1, §2, §3, §4

[11] = test system: Actinomyces viscosus; details: for metabolic activity: OD 492 nm divided by OD of control (control = 1): A viscosus
Protocol: as §1, §2, §3, §4

[12] = test system: Actinomyces naeslundii; details: for metabolic activity: OD 492 nm divided by OD of control (control = 1): A naeslundii
Protocol: as §1, §2, §3, §4

[13] = test system: Prevotella intermedia; details: P intermedia
Protocol: as §1, §2, §3, §4

[14] = test system: Capnocytophaga sputigena; details: C sputigena
Protocol: as §1, §2, §3, §4

[15] = test system: Streptococcus mitis; details: S mitis
Protocol: as §1, §2, §3, §4

Row | SMILES | metabolic activity: OD 492 nm divided by OD of control (control = 1) ([1]; 24 hrs) | metabolic activity: OD 492 nm divided by OD of control (control = 1) ([1]; 48 hrs) | metabolic activity: OD 492 nm divided by OD of control (control = 1) ([2]; 24 hrs) | metabolic activity: OD 492 nm divided by OD of control (control = 1) ([2]; 48 hrs) | metabolic activity: OD 492 nm divided by OD of control (control = 1) ([3]; 24 hrs) | metabolic activity: OD 492 nm divided by OD of control (control = 1) ([3]; 48 hrs) | metabolic activity: OD 492 nm divided by OD of control (control = 1) ([4]; 24 hrs) | metabolic activity: OD 492 nm divided by OD of control (control = 1) ([4]; 48 hrs) | metabolic activity: OD 492 nm divided by OD of control (control = 1) ([5]; 24 hrs) | metabolic activity: OD 492 nm divided by OD of control (control = 1) ([5]; 48 hrs) | metabolic activity: OD 492 nm divided by OD of control (control = 1) ([6]; 24 hrs) | metabolic activity: OD 492 nm divided by OD of control (control = 1) ([6]; 48 hrs) | metabolic activity: OD 492 nm divided by OD of control (control = 1) ([7]; 24 hrs) | metabolic activity: OD 492 nm divided by OD of control (control = 1) ([7]; 48 hrs) | metabolic activity: OD 492 nm divided by OD of control (control = 1) ([8]; 24 hrs) | metabolic activity: OD 492 nm divided by OD of control (control = 1) ([8]; 48 hrs) | metabolic activity: OD 492 nm divided by OD of control (control = 1) ([9]; 24 hrs) | metabolic activity: OD 492 nm divided by OD of control (control = 1) ([9]; 48 hrs) | metabolic activity: OD 492 nm divided by OD of control (control = 1) ([10]; 24 hrs) | metabolic activity: OD 492 nm divided by OD of control (control = 1) ([10]; 48 hrs) | also measured
1 | OC[C@@H](O)[C@@H](O[C@H]1O[C@H](CO)[C@H](O)[C@H](O)[C@H]1O)[C@H](O)[C@@H](O)CO [D-Lactitol, 4-O-α-D-galactopyranosyl-D-glucitol] | 2.0160 | 2.7520 | 0.9115 | 0.7913 | 4.7396 | 5.1101 | 0.8216 | 1.0092 | 1.0703 | 1.1172 | 1.5368 | 1.7842 | 1.0364 | 1.0188 | 0.8916 | 0.8237 | 0.8079 | 0.6786 | 1.4178 | 1.3908 | increase in metabolic activity of S. mutans, in words ([1]; 24 hrs): borderline increase; increase in metabolic activity of S. salivarius, in words ([3]; 24 hrs): marked increase; increase in metabolic activity of A. viscosus, in words ([11]; 24 hrs): marked increase; metabolic activity: OD 492 nm divided by OD of control (control = 1) ([11]; 24 hrs): 4.2553; metabolic activity: OD 492 nm divided by OD of control (control = 1) ([11]; 48 hrs): 4.9364; increase in metabolic activity of A. naeslundii, in words ([12]; 24 hrs): marked increase; metabolic activity: OD 492 nm divided by OD of control (control = 1) ([12]; 24 hrs): 2.4399; metabolic activity: OD 492 nm divided by OD of control (control = 1) ([12]; 48 hrs): 3.3992; metabolic activity: OD 492 nm divided by OD of control (control = 1) ([13]; 24 hrs): 0.9834; metabolic activity: OD 492 nm divided by OD of control (control = 1) ([13]; 48 hrs): 0.9481; metabolic activity: OD 492 nm divided by OD of control (control = 1) ([14]; 24 hrs): 0.9032; metabolic activity: OD 492 nm divided by OD of control (control = 1) ([14]; 48 hrs): 1.0097; metabolic activity: OD 492 nm divided by OD of control (control = 1) ([15]; 24 hrs): 1.0047; metabolic activity: OD 492 nm divided by OD of control (control = 1) ([15]; 48 hrs): 0.9006
2 | OC[C@H]1O[C@@](O)(CO)[C@@H](O[C@H]2O[C@H](CO)[C@@H](O)[C@H](O)[C@H]2O)[C@@H]1O [D-Turanose, α-D-glucopyranosyl-(1→3)-α-D-fructofuranose] | 1.4769 | 2.1955 | 1.3517 | 1.6086 | 1.1489 | 1.2834 | 0.8165 | 0.7822 | 1.0435 | 1.1254 | 1.7899 | 2.1615 | 1.3458 | 1.5207 | 1.0170 | 1.2549 | 0.8743 | 0.7770 | 1.6552 | 1.8299 | metabolic activity: OD 492 nm divided by OD of control (control = 1) ([11]; 24 hrs): 2.2260; metabolic activity: OD 492 nm divided by OD of control (control = 1) ([11]; 48 hrs): 3.0809; metabolic activity: OD 492 nm divided by OD of control (control = 1) ([12]; 24 hrs): 2.1636; metabolic activity: OD 492 nm divided by OD of control (control = 1) ([12]; 48 hrs): 2.7551; metabolic activity: OD 492 nm divided by OD of control (control = 1) ([13]; 24 hrs): 1.1121; metabolic activity: OD 492 nm divided by OD of control (control = 1) ([13]; 48 hrs): 1.2058; metabolic activity: OD 492 nm divided by OD of control (control = 1) ([14]; 24 hrs): 0.9893; metabolic activity: OD 492 nm divided by OD of control (control = 1) ([14]; 48 hrs): 1.0899; metabolic activity: OD 492 nm divided by OD of control (control = 1) ([15]; 24 hrs): 1.2969; metabolic activity: OD 492 nm divided by OD of control (control = 1) ([15]; 48 hrs): 1.3856
